Measurements from ChEMBL document CHEMBL1201862, “PubChem BioAssay data set” (2004).
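Grown in 96-well plates, cells were treated for 48 hours with each compound at five concentrations. Insufficient inhibition: endpoint recorded as highest concentration tested. Abbreviation: GI50, concentration required for 50% inhibition of growth.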 Calls of active or inactive are those of the source. No stated cut-off is given here; in the data, active = GI50 up to about 1.1 µM and inactive = higher.

Legend:
Experiment in all cases: NCI tumour cell line growth inhibition, 48 h
786-0 = test system: 786-0
A549 = test system: A549
ACHN = test system: ACHN
BT-549 = test system: BT-549
CAKI-1 = test system: CAKI-1
CCRF-CEM = test system: CCRF-CEM
COLO 205 = test system: COLO 205
DU-145 = test system: DU-145
EKVX = test system: EKVX
HCC 2998 = test system: HCC 2998
HCT-116 = test system: HCT-116
HCT-15 = test system: HCT-15
HL-60 = test system: HL-60
HOP-62 = test system: HOP-62
HOP-92 = test system: HOP-92
HT-29 = test system: HT-29
Hs-578T = test system: Hs-578T
IGROV-1 = test system: IGROV-1
K562 = test system: K562
KM12 = test system: KM12
LOX IMVI = test system: LOX IMVI
M14 = test system: M14
MCF7 = test system: MCF7
MDA-MB-231 = test system: MDA-MB-231
MDA-MB-435 = test system: MDA-MB-435
MDA-N = test system: MDA-N
MOLT-4 = test system: MOLT-4
Malme-3M = test system: Malme-3M
NCI-H226 = test system: NCI-H226
NCI-H23 = test system: NCI-H23
NCI-H460 = test system: NCI-H460
NCI-H522 = test system: NCI-H522
NCI/ADR-RES = test system: NCI/ADR-RES
OVCAR-3 = test system: OVCAR-3
OVCAR-4 = test system: OVCAR-4
OVCAR-5 = test system: OVCAR-5
OVCAR-8 = test system: OVCAR-8
PC-3 = test system: PC-3
RPMI-8226 = test system: RPMI-8226
RXF 393 = test system: RXF 393
SF-268 = test system: SF-268
SF-295 = test system: SF-295
SF-539 = test system: SF-539
SK-MEL-28 = test system: SK-MEL-28
SK-MEL-2 = test system: SK-MEL-2
SK-MEL-5 = test system: SK-MEL-5
SK-OV-3 = test system: SK-OV-3
SN12C = test system: SN12C
SNB-19 = test system: SNB-19
SNB-75 = test system: SNB-75
SR = test system: SR
SW-620 = test system: SW-620
T47D = test system: T47D
TK-10 = test system: TK-10
U-251 = test system: U-251
UACC-257 = test system: UACC-257
UACC-62 = test system: UACC-62
UO-31 = test system: UO-31

For `O=C(O)CNC(=O)CO/N=C1/C(=C2/C(=O)Nc3ccccc32)Nc2ccccc21`, which GI50 (786-0) is on record?
The GI50 was > 100 µM (inactive).

What about the GI50 (A549) of the same compound?
The GI50 was 86.5 µM (inactive).

What about the GI50 (ACHN) of the same compound?
Its GI50 is > 100 µM (inactive).

And the GI50 (BT-549)?
Its GI50 is > 100 µM (inactive).

And the GI50 (CAKI-1)?
The GI50 was 28.1 µM (inactive).

And the GI50 (CCRF-CEM)?
The GI50 was 42.8 µM (inactive).

What about the GI50 (COLO 205) of the same compound?
Its GI50 is 46.2 µM (inactive).

What about the GI50 (DU-145) of the same compound?
Its GI50 is > 100 µM (inactive).

And the GI50 (EKVX)?
The GI50 was 94.6 µM (inactive).

And the GI50 (HCC 2998)?
The GI50 was 47 µM (inactive).

What about the GI50 (HCT-116) of the same compound?
The GI50 was > 100 µM (inactive).

And the GI50 (HCT-15)?
The GI50 was 51.8 µM.

What about the GI50 (HL-60) of the same compound?
The GI50 was 57.9 µM (inactive).

What about the GI50 (HOP-62) of the same compound?
The GI50 was 27.4 µM (inactive).

What about the GI50 (HOP-92) of the same compound?
The GI50 was > 100 µM (inactive).

What about the GI50 (HT-29) of the same compound?
Its GI50 is > 100 µM (inactive).

And the GI50 (Hs-578T)?
Its GI50 is > 100 µM (inactive).

And the GI50 (IGROV-1)?
Its GI50 is 72.6 µM (inactive).

What about the GI50 (K562) of the same compound?
The GI50 was > 100 µM (inactive).

And the GI50 (KM12)?
The GI50 was 4.9 µM (inactive).

What about the GI50 (LOX IMVI) of the same compound?
Its GI50 is > 100 µM (inactive).

What about the GI50 (M14) of the same compound?
The GI50 was > 100 µM (inactive).

And the GI50 (MCF7)?
Its GI50 is 72.4 µM (inactive).

What about the GI50 (MDA-MB-231) of the same compound?
Its GI50 is > 100 µM (inactive).

And the GI50 (MDA-MB-435)?
The GI50 was > 100 µM (inactive).

And the GI50 (MDA-N)?
The GI50 was 84.9 µM (inactive).

What about the GI50 (MOLT-4) of the same compound?
The GI50 was 70.3 µM (inactive).

What about the GI50 (Malme-3M) of the same compound?
The GI50 was > 100 µM (inactive).

What about the GI50 (NCI-H226) of the same compound?
Its GI50 is > 100 µM (inactive).

And the GI50 (NCI-H23)?
The GI50 was > 100 µM (inactive).

What about the GI50 (NCI-H460) of the same compound?
The GI50 was > 100 µM (inactive).

And the GI50 (NCI-H522)?
The GI50 was > 100 µM (inactive).

What about the GI50 (NCI/ADR-RES) of the same compound?
Its GI50 is > 100 µM (inactive).

And the GI50 (OVCAR-3)?
The GI50 was 42.2 µM (inactive).

And the GI50 (OVCAR-4)?
Its GI50 is > 100 µM (inactive).

And the GI50 (OVCAR-5)?
Its GI50 is > 100 µM (inactive).

And the GI50 (OVCAR-8)?
The GI50 was > 100 µM (inactive).

What about the GI50 (PC-3) of the same compound?
The GI50 was 60.8 µM (inactive).

And the GI50 (RPMI-8226)?
Its GI50 is > 100 µM (inactive).

What about the GI50 (RXF 393) of the same compound?
The GI50 was 55.1 µM (inactive).

What about the GI50 (SF-268) of the same compound?
The GI50 was > 100 µM (inactive).

What about the GI50 (SF-295) of the same compound?
Its GI50 is > 100 µM (inactive).

And the GI50 (SF-539)?
The GI50 was > 100 µM (inactive).

And the GI50 (SK-MEL-28)?
Its GI50 is > 100 µM (inactive).

And the GI50 (SK-MEL-2)?
The GI50 was > 100 µM (inactive).

And the GI50 (SK-MEL-5)?
The GI50 was 54.2 µM (inactive).

And the GI50 (SK-OV-3)?
Its GI50 is 20.9 µM (inactive).

And the GI50 (SN12C)?
Its GI50 is > 100 µM (inactive).

And the GI50 (SNB-19)?
Its GI50 is 70.5 µM (inactive).

And the GI50 (SNB-75)?
Its GI50 is > 100 µM (inactive).

What about the GI50 (SR) of the same compound?
The GI50 was 38.5 µM (inactive).

And the GI50 (SW-620)?
The GI50 was > 100 µM (inactive).

What about the GI50 (T47D) of the same compound?
Its GI50 is 56.9 µM (inactive).

What about the GI50 (TK-10) of the same compound?
Its GI50 is > 100 µM (inactive).

What about the GI50 (U-251) of the same compound?
Its GI50 is > 100 µM (inactive).

What about the GI50 (UACC-257) of the same compound?
The GI50 was > 100 µM (inactive).

What about the GI50 (UACC-62) of the same compound?
Its GI50 is > 100 µM (inactive).

And the GI50 (UO-31)?
Its GI50 is 26.5 µM (inactive).
